Assay results published in patent US20230029496A1, “AMINO ACID ALTERNATIVE CURING SYSTEM” (THE TEXAS A&M UNIVERSITY SYSTEM, priority 2019, published 2023).
Where “and” joins values, the source holds several entries; their conditions need not be identical. Equal entries are not always repeated. Marks after values point to notes of the source that are not given here.

Assays:
[1] = tested on: Nitric Oxide Synthase (NOS) system; assay: Cure efficiency (NO-heme, total heme, nitrosylation) of cooked pre-rigor pork semimembranosus muscle (first study); format: biochemical; conditions: for NO-Heme / Total Heme: ppm acid hematin
Experimental: Cooked meat samples were subjected to analysis to determine the degree of nitrosylation of residual nitrite, the procedure set forth by Pearson and Tauber (Pearson and Tauber, 1984) from Hornsey's procedure for analyzing small samples was used to analyze sample supernatant and pellet. 2 mL or 2 g of the samples were treated with acetone to measure NO-heme concentration and separately 2 mL or 2 g of the samples were treated with acetone and hydrochloric acid to measure total heme concentration in a 1 cm quartz cuvette. NO-heme concentration (ppm acid hematin) was determined using a spectrophotometer (2100 Series Spectrophotometer, Unico, Dayton, N.J.) by reading samples at 540 nm. Total heme concentration (ppm acid hematin) was determined at 640 nm determined nitrosylation, which indicated how well varying concentrations of L-arginine affected the NOS system's ability to cure, known as cure efficiency. This procedure measured how much myoglobin was converted to nitroso-hemochromagen, the cured meat color, and the level of conversion compared to all pigmentation within the sample.
Curing efficiency or nitrosylation is calculated as the percentage conversion of NO-heme to total heme. Cure efficiency is the percentage of total pigment converted to nitroso pigment and indicated the degree of cured color fading. Cured meat pigment is extracted in a solution of 80% acetone and 20% water that extracts cured pigment heme. Total heme pigments are extracted using an acidified acetone solution that extracts heme from all heme proteins as first used by Hornsey. NO-heme concentration (as ppm acid hematin)=sample A540×290 determines the specific cure color pink from the rest of the heme pigmentation of the sample. Total heme concentration (ppm acid hematin)=sample A640×680 determines the total heme pigmentation of the sample. Cure efficiency (%)=(ppm of nitrosoheme […]ppm of total pigment)×100 and indicates how much of the product is cured and holds the cured pink stability once cooked.
Procedures • 1. Do all procedures in subdued light to reduce fading of pigment. • 2. Weigh out 2.0 g minced lean meat sample in a 50-mL polypropylene centrifuge tube. • 3. Pipette 9.0 mL acetone-a into 50-mL tube, to obtain acetone concentration of 80%. • 4. Mix thoroughly with a probe-type homogenizer or a glass rod. • 5. Cap the tube to minimize evaporation of acetone, and mix by gentle swirling. • 6. Let stand 10 minutes in the dark, then filter through medium-fast filter paper into a glass test tube. • 7. Transfer filtrate into a 1-cm quartz cuvette and read absorbance at 540 nm. (Avoid use of disposable plastic cuvettes. They become opaque upon exposure to acetone). Calculate nitroso pigment concentration as previously described. • 8. Prepare another 2.0-g sample, using acetone-b. • 9. Macerate and hold 1 hour in the dark before filtering. • 10. Filter the extract as before, and read absorbance at 640 nm. Calculate total pigment and cure efficiency as previously described.

NOS system = assay: NO-heme, total heme, nitrosylation and cured color in test tube pork loin sausages (Example 11)
Excerpt: Pork loins from a local meat distributor were procured on Mar. 18, 2019 and tested four weeks later on Apr. 18, 2019. A total of nine pounds of pork loins were split into thirds and ground through kidney, ½″, and ¼″ plates to make a restructured ham sausages formulated (Table 14) to contain either 1000 or 5000 ppm L-arginine which were stuffed in 2″ plastic casings and thermally processed. Three pounds of each grind size (9 pound batch) were mixed with high (5000 ppm), low (1000 ppm), or control (0 ppm) concentrations of brine at 25% addition using a Kitchen aid mixer. It was decided to lower the concentration of the L-arginine from 1500 ppm (Test 3) to 1000 ppm (Test 4) to verify that this concentration can generate acceptable levels of NO to develop cured color and residual nitrite for antioxidant and antimicrobial properties. Control and treatment met batches were stuffed in plastic casings in triplicate for each high, low, and control concentrations in one pound portions. […] The samples were tested for residual nitrite and nitroso-hemochromagen pigment (Table 14) one day after thermal processing cooking (April 19th to April 20th), then eight days after thermal processing on April 26th to determine any cure color fading and residual nitrite.

[2] = tested on: Nitric Oxide Synthase (NOS) system; assay: NO-heme, total heme, nitrosylation in plastic casing test tube ground pork loin sausages (Example 10); conditions: for Nitrosylation / NO-Heme / Total Heme: cooked; for NO-Heme / Total Heme: ppm acid hematin
Experimental: The desired cured color could not initially be generated in a variety of processed meat products in a pilot plant setting. […] Pork loins (N=2) procured from a local meat distributor (Mar. 18, 2019) were used. Eight pounds of pork loins were ground (½″ then ¼″ plate) and weighed out in one pound portions. Plastic waterproof casings (2″ diameter) were clipped at one end. One pound of ground pork loin was placed in the casing and two pounds of brine (L-arginine concentration 7498 ppm) were added and the open end of the casing clipped. Based on laboratory test tube studies, meat samples would absorb 20-25% of the solution which equates to absorption of approximately 1500 ppm of L-arginine. Each plastic casing contained the same proportion of meat and brine as conducted during previous laboratory experiments (Table 12). A control was manufactured by substituting distilled water for the L-arginine brine.
After thermal processing the plastic casing test tubes were cut open and emptied into beakers, then separated into residue (meat particles) and supernatant (liquid) via paper filtration into 50 mL conical tubes for collection and subsequent analysis for residual nitrite (supernatant) and cured pigment formation/nitrosylation (meat residue).
Nitrosylation and residual nitrite analyses was performed under reduced light to avoid loss of pigmentation. L-arginine treated test tube pork sausage averaged 53.12 to 72.30 ppm of residual nitrite in the cooked meat pellet with percent nitrosylation ranging from 33 to 60 percent (Table 13). The brine was formulated to deliver 1500 ppm ingoing L-arginine at 25% absorption into the meat after two hours of immersion in the brine solution.

[3] = 2 mM L-arginine, cooked supernatant
[4] = 4 mM L-arginine, cooked supernatant
[5] = 8 mM L-arginine, cooked supernatant
[6] = 16 mM L-arginine, cooked pellet
[7] = 16 mM L-arginine, cooked supernatant
[8] = 32 mM L-arginine, cooked pellet
[9] = 32 mM L-arginine, cooked supernatant
[10] = Low (1000 ppm) L-arginine, 8 days post thermal processing
[11] = Low (1000 ppm) L-arginine, one day after thermal processing

N=C(N)NCCC[C@H](N)C(=O)O [L-arginine]
Nitrosylation (Cure Efficiency) ([1]; 2 mM L-arginine, cooked pellet): 46.51% and 46.51^ab %
NO-Heme ([1]; 2 mM L-arginine, cooked pellet): 8.70^a ppm
Total Heme ([1]; 2 mM L-arginine, cooked pellet): 64.77 ppm and 64.77^a ppm
Nitrosylation (Cure Efficiency) [1, 3]: 125.52^a %
NO-Heme [1, 3]: 43.94^a ppm
Total Heme [1, 3]: 24.22 ppm and 24.22^ab ppm
Nitrosylation (Cure Efficiency) ([1]; 4 mM L-arginine, cooked pellet): 74.27% and 74.27^ab %
NO-Heme ([1]; 4 mM L-arginine, cooked pellet): 7.77^a ppm
Total Heme ([1]; 4 mM L-arginine, cooked pellet): 35.87^ab ppm
Nitrosylation (Cure Efficiency) [1, 4]: 155.68^a %
NO-Heme [1, 4]: 21.09^a ppm
Total Heme [1, 4]: 34.17 ppm and 34.17^ab ppm
Nitrosylation (Cure Efficiency) ([1]; 8 mM L-arginine, cooked pellet): 70.13% and 70.13^ab %
NO-Heme ([1]; 8 mM L-arginine, cooked pellet): 9.33^a ppm
Total Heme ([1]; 8 mM L-arginine, cooked pellet): 33.44^ab ppm
Nitrosylation (Cure Efficiency) [1, 5]: 108.99^a %
NO-Heme [1, 5]: 16.44^a ppm
Total Heme [1, 5]: 70.38 ppm and 70.38^a ppm
Nitrosylation (Cure Efficiency) [1, 6]: 97.82% and 97.82^ab %
NO-Heme [1, 6]: 11.69^a ppm
Total Heme [1, 6]: 36.04^ab ppm
Nitrosylation (Cure Efficiency) [1, 7]: 110.11^a %
NO-Heme [1, 7]: 16.73^a ppm
Total Heme [1, 7]: 20.14 ppm and 20.14^ab ppm
Nitrosylation (Cure Efficiency) [1, 8]: 156.72% and 156.72^a %
NO-Heme [1, 8]: 13.05^a ppm
Total Heme [1, 8]: 54.40^ab ppm
Nitrosylation (Cure Efficiency) [1, 9]: 50.48^a %
NO-Heme [1, 9]: 16.86^a ppm
Total Heme [1, 9]: 31.67 ppm and 31.67^ab ppm
cure efficiency ([1]; cooked supernatant, at all L-arginine concentrations): over 100%
Total Heme (NOS system; High (5000 ppm) L-arginine, one day after thermal processing): 22.21^a ppm
NO-Heme (NOS system; [10]): 12.95^a ppm
Nitrosylation (NOS system; [10]): 45.28^a %
NO-Heme (NOS system; [11]): 8.21^a ppm
Total Heme (NOS system; [11]): 22.21^a ppm
nitrosylation percentage (NOS system; from the low to high concentrations, one day after thermal processing): 37 to 60%
cured color (FIG. 8) (NOS system; high concentration (5000 ppm) L-arginine): pink cured color formation
cured color (FIG. 8) (NOS system; low concentration (1000 ppm) L-arginine): slight cured color
Nitrosylation ([2]; 10% L-arginine brine): 33.71^ab %
NO-Heme ([2]; 10% L-arginine brine): 7.63^bc ppm
Total Heme ([2]; 10% L-arginine brine): 22.66^a ppm
Nitrosylation ([2]; 15% L-arginine brine): 45.19^a %
NO-Heme ([2]; 15% L-arginine brine): 8.70^b ppm
Total Heme ([2]; 15% L-arginine brine): 19.26^a ppm
Nitrosylation ([2]; 20% L-arginine brine): 36.99^ab %
NO-Heme ([2]; 20% L-arginine brine): 8.31^b ppm
Total Heme ([2]; 20% L-arginine brine): 22.66^a ppm
Nitrosylation ([2]; 25% L-arginine brine): 60.13^a %
NO-Heme ([2]; 25% L-arginine brine): 16.24^a ppm
Total Heme ([2]; 25% L-arginine brine): 28.56^a ppm
percent nitrosylation ([2]; range over brine additions 10-25%): 33 to 60%
